# Laboratory results as given in US20060110376A1, “MDA-7 and free radicals in the treatment of cancer” (priority 2002, published 2006).
# How the values were obtained:
# [1] = system: RCC cell lines A498 and UOK121N; experiment: Cell death (Giemsa staining, trypan blue); assay type: cell-based, human; details: 10 mM N-acetyl cysteine 1 h before As2O3
# Experimental: Cells were plated in 6 well plates (˜5×10^4 cells/well) and 24 h later treated with GST, GST-MDA-7 (both 0.5 nM) and As2O3 (0.5 μM) as indicated. Where indicated, cells were pre-treated with 10 mM N-acetyl cysteine 1 h prior to addition of As2O3. Cells were isolated 96 h after GST-MDA-7 treatment. Cell death was determined on isolated fixed cells by Giemsa staining for apoptosis and necrosis (presented as a single value) as described (30). Panel A. UOK121N cells. Panel B. A498 cells. […]
# Assessment of Apoptosis and Cell Death. […] For each condition, 10 randomly selected fields per slide were evaluated, encompassing at least 15000 cells (Dai et al., 2002, Cell Cycle 1:143-152; Qiao et al., 2001, Mol. Biol. Cell 12:2629-2645). To confirm the results of morphologic analysis, in some cases cells were also evaluated by TUNEL staining and oligonucleosomal DNA fragmentation assay as follows; staining, cytospin slides were fixed with 4% formaldehyde/PBS for 10 min, treated with acetic acid/ethanol (1:2) for 5 min, and incubated with terminal transferase reaction mixture containing 1× terminal transferase reaction buffer, […] terminal transferase, 2.5 mM CoCl2, and 2 pmol fluorescein-12-dUTP (Boehringer Mannheim, Indianapolis, Ind.) at 37° C. for 1 h. […]
# Assessment of Cell Viability. […] Cells (˜400) were counted in all four fields of a hemocytometer.
# [2] = system: A498, UOK121N and primary renal epithelial cells; experiment: MTT cell growth assay, arsenic trioxide alone; assay type: cell-based, human
# Experimental: FIG. 26. Arsenic trioxide causes a concentration-dependent reduction in primary and renal carcinoma cell growth. Cells were plated in 12 well plates (˜1×10^4 cells/well) and 24 h later treated with increasing concentrations of As2O3 as indicated. Cell growth was determined via MTT assay 96 h after GST-MDA-7 treatment. Data are the means of 12 wells (one plate per condition, ±SEM) from a representative experiment using separate As2O3 formulations (n=3). Arsenic trioxide caused a dose-dependent enhancement in cell killing at higher concentrations >10 μM.
# MTT Assay for Determination of Cellular Viability. The MTT test is based on the enzymatic reduction of the tetrazolium salt MTT in living, metabolically active cells but not in dead cells. Cells were plated (5-10,000 cells per well of a 12 well plate) and 24 h after plating treated with either GST or GST-MDA-7 at the indicated concentrations. Thirty minutes after protein treatment, cells were treated with arsenic trioxide at the indicated concentrations. The cytotoxicity of the various treatments was assessed four days after irradiation by measurement of cell viability by use of the MTT assay, as described previously (McKinstry et al., 2002, Cancer Biol. Ther. 1:243-253). The plates were read on a Dynatech MR600 Microplate Reader at 540 nm. […]
# [3] = system: renal carcinoma cells (UOK121N, A498); experiment: Clonogenic survival assay; assay type: cell-based, human; details: arsenic trioxide (0.5 μM) alone
# Experimental: Panel A. UOK121N cells. Panel B. A498 cells. Cells were plated in 6 well plates (˜5×10^4 cells/well) and 24 h later treated with GST, GST-MDA-7 (both 0.5 nM) and As2O3 (0.5 μM) as indicated. Cells were isolated 96 h after GST-MDA-7 treatment and cell viability determined using trypan blue exclusion assay (see FIG. 28). Based on trypan blue negative viable cell values, 250, 500 and 2000 viable cells were re-plated in Linbro plates. The plating density for colony formation assays depended upon the prior treatment of the cells and data obtained in FIGS. 27 and 28. 10-14 days after plating, cells were fixed and stained with crystal violet. Colony formation was determined using visual counting, and a colony was defined as a group of >50 cells. Data are the means of 3 separate experiments (±SEM). * p<0.05 less than control cells; # p<0.05 less than As2O3 or GST-MDA-7 treated cells.
# Cell Survival Analyses. Cells were assayed for the effect(s) of GST-MDA-7 and arsenic trioxide on cell survival. Cells were plated (10,000 cells per 60 mm dish) and 24 h after plating treated with GST-MDA-7 or GST. Thirty minutes later, cells were treated with arsenic trioxide. Ninety-six hours later, cells were isolated by trypsinization and viable trypan blue negative cells re-plated in 60 mm dishes at 250-1,000 cells per plate. […] Colonies that contain more than 50 cells were then counted. […]
# [4] = system: normal cells (immortalized human astrocytes or melanocytes); experiment: MTT viability assay; assay type: cell-based; details: Ad.mda-7 100 p.f.u./cell
# Experimental: MTT Viability Assays. Cell viability was assessed by MTT assays as described (Lebedeva et al., 2000, Cancer Research 60:6052-6060). Briefly, cells were seeded in 96-well tissue culture plates (1.5×10^3 cells per well) and treated with various agents. At the indicated times, medium was removed, and fresh medium containing 0.5 mg/ml MTT was added to each well. The cells were incubated at 37° C. for 4 h and then an equal volume of solubilization solution (0.01N HCl in 10% SDS) was added to each well and mixed thoroughly. The optical density from the plates was read on a BioRad Microplate Reader Model 550 at 595 nm.
Molecule,effect of N-acetyl-cysteine on cell killing by GST-MDA-7 + arsenic trioxide [1],concentrations giving dose-dependent enhancement in cell killing [2] [µM],concentration above which proliferation was dose-dependently reduced ([2]; 96 h),clonogenicity [3],"growth, combinational treatment with Ad.mda-7 [4]"
"CC(=O)N[C@@H](CS)C(=O)O [NAC, N-acetyl-cysteine]",significantly reduced cell killing,–,–,–,–
arsenic trioxide,–,> 10,above 1 μM,significantly reduced clonogenicity,does not affect growth of normal cells
